SMILES strings stand for the structures. Calls of active or inactive are those of the source. The rule behind the calls is not given here.

This is an account of results in ChEMBL document CHEMBL4339189, “Dissymmetric pyridyl-substituted 3,5-bis(arylidene)-4-piperidones as anti-hepatoma agents by inhibiting NF-κB pathway activation” (Eur J Med Chem, 2019).

For assay [1], the system named is HepG2. Description: Induction of apoptosis in human HepG2 cells assessed as increase in cleaved caspase-3 expression up to 4 uM after 24 hrs by Western blot analysis. The class given is functional, cell-based. On the technique in general: A western blot detects proteins with antibodies after separation by electrophoresis.
Assay [2] addresses Transcription factor p65 (Mus musculus) (UniProt Q04207). Description: Inhibition of NFkappaB activation in mouse RAW264.7 cells assessed as reduction in LPS-induced p65 phosphorylation at 1 to 4 uM incubated for 2 hrs after pre-incubation with LPS for 15 mins by Western blot analysis. The class given is cell-based.
The subject of assay [3] is L02. Description: Cytotoxicity against human LO2 cells assessed as reduction in cell viability incubated for 24 hrs by MTT assay. In kind it is cell-based. The conditions noted are these: L02, 24 h.
Assay [4] deals with SMMC-7721. Description: Induction of apoptosis in human SMMC7721 cells assessed as increase in apoptotic cell population at 2.0 uM incubated for 24 hrs by Annexin V-FITC/propidium iodide staining based flow cytometry relative to control. The class given is functional. On the technique in general: Flow cytometry measures light scatter and fluorescence of single cells or particles in a stream.

For assay [5], the target named is Transcription factor p65 (Homo sapiens) (UniProt Q04206). Kind of assay: Inhibition of LPS-induced NFkappaB p65 nuclear translocation in human HepG2 cells at 4 uM incubated for 2 hrs after pre-incubation with LPS for 15 mins by DAPI staining-based immunofluorescence assay. In kind it is cell-based.
For assay [6], the system named is QGY-7703. Kind of assay: Induction of apoptosis in human QGY7703 cells assessed as increase in apoptotic cell population at 4.0 uM incubated for 24 hrs by Annexin V-FITC/propidium iodide staining based flow cytometry relative to control. The class given is functional.
Assay [7] has as its system Mus musculus. Kind of assay: Antiinflammatory activity in human HepG2 cells xenografted Balb/c nude mouse assessed as reduction in TNFalpha protein expression at 1 mg/kg, ip administered every 2 days for 20 days and measured every 2 days by immunohistochemistry. The class given is functional, organism-based. For orientation: Xenograft models place foreign cells or tissue in a host animal.

In assay [8] the target is Transcription factor p65 (Mus musculus) (UniProt Q04207). Description: Inhibition of LPS-induced NFkappaB p65 nuclear translocation in mouse RAW264.7 cells at 4 uM incubated for 2 hrs after pre-incubation with LPS for 15 mins by DAPI staining-based immunofluorescence assay. The class given is cell-based.
Assay [9] deals with HepG2. Description: Induction of apoptosis in human HepG2 cells assessed as increase in Bax expression up to 4 uM after 24 hrs by Western blot analysis. The class given is functional, cell-based.

Sequence of Transcription factor p65 (Mus musculus) (Q04207 whole entry): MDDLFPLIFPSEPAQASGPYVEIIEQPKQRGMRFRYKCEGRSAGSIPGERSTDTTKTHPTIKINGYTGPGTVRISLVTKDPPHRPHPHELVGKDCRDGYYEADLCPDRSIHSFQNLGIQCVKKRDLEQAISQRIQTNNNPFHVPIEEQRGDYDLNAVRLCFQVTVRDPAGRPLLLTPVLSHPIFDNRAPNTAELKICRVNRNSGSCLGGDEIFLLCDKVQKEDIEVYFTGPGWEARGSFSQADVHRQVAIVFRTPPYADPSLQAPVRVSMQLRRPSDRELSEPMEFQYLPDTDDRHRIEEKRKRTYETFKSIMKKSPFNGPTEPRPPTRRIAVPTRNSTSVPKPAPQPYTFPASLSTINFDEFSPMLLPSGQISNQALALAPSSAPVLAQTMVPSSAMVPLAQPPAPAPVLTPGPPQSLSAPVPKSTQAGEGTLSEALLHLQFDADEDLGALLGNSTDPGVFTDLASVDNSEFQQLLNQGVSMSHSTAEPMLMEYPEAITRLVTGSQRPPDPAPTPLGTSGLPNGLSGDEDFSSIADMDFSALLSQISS
Sequence of Transcription factor p65 (Homo sapiens) (Q04206 whole entry): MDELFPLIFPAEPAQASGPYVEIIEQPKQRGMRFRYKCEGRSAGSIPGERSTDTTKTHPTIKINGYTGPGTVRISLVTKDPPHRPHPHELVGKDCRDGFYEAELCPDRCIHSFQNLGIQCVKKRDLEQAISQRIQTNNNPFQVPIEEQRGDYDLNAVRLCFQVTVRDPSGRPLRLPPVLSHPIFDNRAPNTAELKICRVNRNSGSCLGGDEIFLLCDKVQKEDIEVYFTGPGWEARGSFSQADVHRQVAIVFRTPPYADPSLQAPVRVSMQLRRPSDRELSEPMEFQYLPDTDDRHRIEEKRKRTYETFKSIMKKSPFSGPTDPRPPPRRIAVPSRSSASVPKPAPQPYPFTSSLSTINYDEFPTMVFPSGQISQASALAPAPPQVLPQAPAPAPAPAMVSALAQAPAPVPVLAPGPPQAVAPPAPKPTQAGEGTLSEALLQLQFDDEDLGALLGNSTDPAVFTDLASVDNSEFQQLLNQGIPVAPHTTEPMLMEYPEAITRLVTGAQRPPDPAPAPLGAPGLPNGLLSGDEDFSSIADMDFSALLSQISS

`O=C1/C(=C/c2cccnc2)CN(S(=O)(=O)c2ccc(C(F)(F)F)cc2)C/C1=C\c1ccccc1C(F)(F)F`: the Activity entry is “Dose-dependent effect” in [1], 40% in [4], over 70% in [6] and “Dose-dependent effect” in [9]. The inhibition entry in [2] is “Dose-dependent effect”. Further, the concentration for half-maximal inhibition (IC50) in assay [3] came out at 14.3 µM. The inhibition entry in [5] and in [8] was “Active” each time. The result in assay [7] was Active.

As a reminder, the IC50 is the concentration needed to halve the response being measured.
